Square brackets hold non-standard residues; d marks the D form. Side chains are listed from the residue outwards. Peptide text beside a SMILES is read from it. Oic = O=C(O)[C@@H]1C[C@@H]2CCCC[C@@H]2N1; Hyp = O=C(O)[C@@H]1C[C@@H](O)CN1; dTic = O=C(O)[C@H]1Cc2ccccc2CN1; 2Thi = N[C@@H](Cc1cccs1)C(=O)O; Dap = NC[C@H](N)C(=O)O
Legend:
Mu-type opioid receptor = Mu-type opioid receptor (Rattus norvegicus, UniProt P33535); assay: Displacement of [3H]DAMGO from rat mu opiod receptor
[1] = target: Delta-type opioid receptor (Homo sapiens, UniProt P41143); assay: Displacement of [3H]DPDPE from human delta opiod receptor
B2 bradykinin receptor [2] = target: T1, B2 bradykinin receptor (Rattus norvegicus, UniProt P25023); assay: Displacement of [3H]BK from B2R in rat brain membranes by liquid scintillation counting in based radioligand competition assay; format: cell membranes, Membrane
T1 sequence (P25023 whole entry): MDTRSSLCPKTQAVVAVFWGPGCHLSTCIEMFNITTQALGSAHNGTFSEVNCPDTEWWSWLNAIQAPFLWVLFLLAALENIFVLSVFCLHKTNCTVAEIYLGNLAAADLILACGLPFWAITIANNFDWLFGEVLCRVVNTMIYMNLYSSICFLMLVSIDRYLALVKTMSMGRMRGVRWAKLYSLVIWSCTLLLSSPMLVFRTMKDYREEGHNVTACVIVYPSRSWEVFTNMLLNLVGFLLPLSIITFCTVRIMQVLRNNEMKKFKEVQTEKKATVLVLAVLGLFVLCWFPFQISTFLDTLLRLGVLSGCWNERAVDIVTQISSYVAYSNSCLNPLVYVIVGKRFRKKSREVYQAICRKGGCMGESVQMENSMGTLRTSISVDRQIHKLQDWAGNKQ

B2 bradykinin receptor [3] = target: T2, B2 bradykinin receptor (Cavia porcellus, UniProt O70526); assay: Antagonist activity against B2R in Hartley guinea pig ileum assessed as reduction in electrically-induced response; format: tissue-based
T2 sequence (O70526 whole entry): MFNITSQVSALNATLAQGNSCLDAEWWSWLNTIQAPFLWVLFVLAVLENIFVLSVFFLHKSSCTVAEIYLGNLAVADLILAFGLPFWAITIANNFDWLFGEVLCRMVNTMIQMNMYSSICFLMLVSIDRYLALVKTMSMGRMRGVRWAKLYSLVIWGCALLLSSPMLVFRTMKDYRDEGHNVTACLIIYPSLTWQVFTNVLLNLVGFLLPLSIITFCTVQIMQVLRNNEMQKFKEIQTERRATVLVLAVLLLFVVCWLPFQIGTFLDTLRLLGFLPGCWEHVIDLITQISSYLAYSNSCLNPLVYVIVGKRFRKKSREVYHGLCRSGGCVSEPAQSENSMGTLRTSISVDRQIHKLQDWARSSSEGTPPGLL

B2 bradykinin receptor [4] = target: T2, B2 bradykinin receptor; assay: Binding affinity to B2R in guinea pig ileum membranes; format: cell membranes, Membrane

Delta-type opioid receptor, sequence (P41143 whole entry): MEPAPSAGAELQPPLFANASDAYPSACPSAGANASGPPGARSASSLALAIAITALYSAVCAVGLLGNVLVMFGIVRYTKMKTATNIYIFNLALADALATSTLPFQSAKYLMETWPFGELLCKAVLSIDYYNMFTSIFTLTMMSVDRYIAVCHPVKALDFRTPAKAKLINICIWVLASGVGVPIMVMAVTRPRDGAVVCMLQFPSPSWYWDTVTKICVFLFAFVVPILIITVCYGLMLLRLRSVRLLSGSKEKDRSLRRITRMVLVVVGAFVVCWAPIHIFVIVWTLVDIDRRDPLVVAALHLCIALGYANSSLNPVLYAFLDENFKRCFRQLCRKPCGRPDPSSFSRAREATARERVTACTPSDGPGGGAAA
Mu-type opioid receptor, sequence (P33535 whole entry): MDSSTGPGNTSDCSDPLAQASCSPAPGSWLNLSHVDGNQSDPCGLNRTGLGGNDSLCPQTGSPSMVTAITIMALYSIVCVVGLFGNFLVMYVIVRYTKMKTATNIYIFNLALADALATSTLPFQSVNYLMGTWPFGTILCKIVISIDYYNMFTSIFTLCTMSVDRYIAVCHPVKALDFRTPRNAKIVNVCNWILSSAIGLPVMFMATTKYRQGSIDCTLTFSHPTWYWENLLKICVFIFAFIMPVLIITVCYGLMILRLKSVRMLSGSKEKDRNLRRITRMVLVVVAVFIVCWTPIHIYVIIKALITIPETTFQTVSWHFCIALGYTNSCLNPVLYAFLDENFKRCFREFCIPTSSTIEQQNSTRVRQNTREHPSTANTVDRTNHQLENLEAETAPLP

Structure (SMILES)	Ki (Mu-type opioid receptor)	Ki [1]	Ki (B2 bradykinin receptor [2])	IC50 (Mu-type opioid receptor)	IC50 [1]	other results
N=C(N)NCCC[C@H](NC(=O)[C@@H]1C[C@@H]2CCCC[C@@H]2N1C(=O)[C@H]1Cc2ccccc2CN1C(=O)[C@H](CO)NC(=O)[C@H](Cc1cccs1)NC(=O)CNC(=O)[C@@H]1C[C@@H](O)CN1C(=O)[C@@H]1CCCN1C(=O)[C@H](CCCNC(=N)N)NC(=O)[C@@H](CCCNC(=N)N)NC(=O)[C@H](Cc1ccccc1)NC(=O)[C@@H]1CCCN1C(=O)[C@@H](N)Cc1ccc(O)cc1)C(=O)O	2300 nM	> 10000 nM	> 10000 nM	–	–	pIC50 (Mu-type opioid receptor): 5.29
CSCC[C@H](NC(=O)[C@H](Cc1ccccc1)NC(=O)[C@@H](C)NC(=O)[C@@H](N)Cc1ccc(O)cc1)C(=O)N[C@H](CCCNC(=N)N)C(=O)N[C@@H](CCCNC(=N)N)C(=O)N1CCC[C@H]1C(=O)N1C[C@H](O)C[C@H]1C(=O)NCC(=O)N[C@@H](Cc1cccs1)C(=O)N[C@@H](CO)C(=O)N1Cc2ccccc2C[C@@H]1C(=O)N1[C@H](C(=O)N[C@@H](CCCNC(=N)N)C(=O)O)C[C@@H]2CCCC[C@@H]21	70 nM	6900 nM	5200 nM	155 nM	17000 nM	IC50 (B2 bradykinin receptor [3]): 1.8 nM
N=C(N)NCCC[C@H](NC(=O)[C@@H]1C[C@@H]2CCCC[C@@H]2N1C(=O)[C@H]1Cc2ccccc2CN1C(=O)[C@H](CO)NC(=O)[C@H](Cc1cccs1)NC(=O)CNC(=O)[C@@H]1C[C@@H](O)CN1C(=O)[C@@H]1CCCN1C(=O)[C@H](CCCNC(=N)N)NC(=O)[C@@H](CCCNC(=N)N)NC(=O)[C@H](Cc1ccccc1)NC(=O)[C@H](Cc1ccccc1)NC(=O)[C@@H]1CCCN1C(=O)[C@@H](N)Cc1ccc(O)cc1)C(=O)O	480 nM	> 10000 nM	> 10000 nM	–	–	pIC50 (Mu-type opioid receptor): 5.97; IC50 (B2 bradykinin receptor [3]): 1.9 nM
C[C@@H](NC(=O)[C@@H](N)Cc1ccc(O)cc1)C(=O)NCC(=O)N[C@@H](Cc1ccccc1)C(=O)N[C@H](CCCNC(=N)N)C(=O)N[C@@H](CCCNC(=N)N)C(=O)N1CCC[C@H]1C(=O)N1C[C@H](O)C[C@H]1C(=O)NCC(=O)N[C@@H](Cc1cccs1)C(=O)N[C@@H](CO)C(=O)N1Cc2ccccc2C[C@@H]1C(=O)N1[C@H](C(=O)N[C@@H](CCCNC(=N)N)C(=O)O)C[C@@H]2CCCC[C@@H]21	–	–	> 10000 nM	22.9 nM	4170 nM	IC50 (B2 bradykinin receptor [3]): 1.7 nM
C[C@@H](NC(=O)[C@@H](N)Cc1ccc(O)cc1)C(=O)NCC(=O)N[C@@H](Cc1ccccc1)C(=O)NCCC(=O)N[C@H](CCCNC(=N)N)C(=O)N[C@@H](CCCNC(=N)N)C(=O)N1CCC[C@H]1C(=O)N1C[C@H](O)C[C@H]1C(=O)NCC(=O)N[C@@H](Cc1cccs1)C(=O)N[C@@H](CO)C(=O)N1Cc2ccccc2C[C@@H]1C(=O)N1[C@H](C(=O)N[C@@H](CCCNC(=N)N)C(=O)O)C[C@@H]2CCCC[C@@H]21	–	–	–	3.09 nM	91.2 nM	–
C[C@@H](NC(=O)[C@@H](N)Cc1ccc(O)cc1)C(=O)NCC(=O)N[C@@H](Cc1ccccc1)C(=O)NCCCCCCCC(=O)N[C@H](CCCNC(=N)N)C(=O)N[C@@H](CCCNC(=N)N)C(=O)N1CCC[C@H]1C(=O)N1C[C@H](O)C[C@H]1C(=O)NCC(=O)N[C@@H](Cc1cccs1)C(=O)N[C@@H](CO)C(=O)N1Cc2ccccc2C[C@@H]1C(=O)N1[C@H](C(=O)N[C@@H](CCCNC(=N)N)C(=O)O)C[C@@H]2CCCC[C@@H]21	–	–	–	1.23 nM	4.68 nM	–
C[C@@H](NC(=O)[C@@H](N)Cc1ccc(O)cc1)C(=O)NCC(=O)N[C@@H](Cc1ccccc1)C(=O)NC[C@H](N)C(=O)N[C@H](CCCNC(=N)N)C(=O)N[C@@H](CCCNC(=N)N)C(=O)N1CCC[C@H]1C(=O)N1C[C@H](O)C[C@H]1C(=O)NCC(=O)N[C@@H](Cc1cccs1)C(=O)N[C@@H](CO)C(=O)N1Cc2ccccc2C[C@@H]1C(=O)N1[C@H](C(=O)N[C@@H](CCCNC(=N)N)C(=O)O)C[C@@H]2CCCC[C@@H]21	0.6 nM	–	–	1.41 nM	–	–
C[C@@H](NC(=O)[C@@H](N)Cc1ccc(O)cc1)C(=O)NCC(=O)N[C@@H](Cc1ccccc1)C(=O)NC[C@H](N)C(=O)NCCC(=O)N[C@H](CCCNC(=N)N)C(=O)N[C@@H](CCCNC(=N)N)C(=O)N1CCC[C@H]1C(=O)N1C[C@H](O)C[C@H]1C(=O)NCC(=O)N[C@@H](Cc1cccs1)C(=O)N[C@@H](CO)C(=O)N1Cc2ccccc2C[C@@H]1C(=O)N1[C@H](C(=O)N[C@@H](CCCNC(=N)N)C(=O)O)C[C@@H]2CCCC[C@@H]21	0.5 nM	7 nM	–	–	–	pIC50 (Mu-type opioid receptor): 8.94; pIC50 [1]: 7.77
C[C@@H](NC(=O)[C@@H](N)Cc1ccc(O)cc1)C(=O)NCC(=O)N[C@@H](Cc1ccccc1)C(=O)NCCCCCCCC(=O)NC[C@H](N)C(=O)N[C@H](CCCNC(=N)N)C(=O)N[C@@H](CCCNC(=N)N)C(=O)N1CCC[C@H]1C(=O)N1C[C@H](O)C[C@H]1C(=O)NCC(=O)N[C@@H](Cc1cccs1)C(=O)N[C@@H](CO)C(=O)N1Cc2ccccc2C[C@@H]1C(=O)N1[C@H](C(=O)N[C@@H](CCCNC(=N)N)C(=O)O)C[C@@H]2CCCC[C@@H]21	0.3 nM	–	–	0.813 nM	–	–
C[C@@H](NC(=O)[C@@H](N)Cc1ccc(O)cc1)C(=O)NCC(=O)N[C@@H](Cc1ccccc1)C(=O)NC[C@H](NC(=O)[C@@H]1CCCN1C(=O)[C@H](CCCNC(=N)N)NC(=O)[C@H](N)CCCNC(=N)N)C(=O)NCC(=O)N[C@@H](Cc1cccs1)C(=O)N[C@@H](CO)C(=O)N1Cc2ccccc2C[C@@H]1C(=O)N1[C@H](C(=O)N[C@@H](CCCNC(=N)N)C(=O)O)C[C@@H]2CCCC[C@@H]21	–	–	–	4.79 nM	6.76 nM	–
NC(N)=NCCC[C@@H](N)C(=O)N[C@@H](CCCN=C(N)N)C(=O)N1CCC[C@H]1C(=O)N1C[C@H](O)C[C@H]1C(=O)NCC(=O)N[C@@H](Cc1cccs1)C(=O)N[C@@H](CO)C(=O)N1Cc2ccccc2C[C@@H]1C(=O)N1[C@H](C(=O)N[C@@H](CCCN=C(N)N)C(=O)O)C[C@@H]2CCCC[C@@H]21	–	–	> 10000 nM	–	–	Ki (B2 bradykinin receptor [4]): 1 nM
C[C@@H](NC(=O)[C@@H](N)Cc1ccc(O)cc1)C(=O)NCC(=O)N[C@@H](Cc1ccccc1)C(=O)NC[C@H](NC(=O)[C@H](Cc1cccs1)NC(=O)CNC(=O)[C@@H]1C[C@@H](O)CN1C(=O)[C@@H]1CCCN1C(=O)[C@H](CCCNC(=N)N)NC(=O)[C@H](N)CCCNC(=N)N)C(=O)N1Cc2ccccc2C[C@@H]1C(=O)N1[C@H](C(=O)N[C@@H](CCCNC(=N)N)C(=O)O)C[C@@H]2CCCC[C@@H]21 (H-[dR]RP[Hyp]G[2Thi][Dap]([Phe-Gly-dA-Tyr])[dTic][Oic]R-OH)	–	–	–	15.5 nM	0.603 nM	–

Reference: ChEMBL document CHEMBL3616445, “Design, synthesis and biological evaluation of multifunctional ligands targeting opioid and bradykinin 2 receptors” (Bioorg Med Chem Lett, 2015)
